Assay results taken from US9963462B2 (priority 2015, dated 2018).

Tests used:
[1] = tested on: BH4 levels in SK-N-BE (2) cells; assay: SKN-N-BE (2) cellular assay, BH4 levels by LC-MS; type: cell-based; settings: Homo sapiens, SKNBE2, read-out: SK-N-BE(2) IC50, SK-N-BE (2) cells, BH4 levels by LC-MS
[2] = biological target: SNAP-hSPR (sepiapterin reductase, SPR) (Homo sapiens, UniProt P35270); assay: biochemical; type: binding; settings: terbium labelled SNAP-hSPR / SSZ labelled SNAP-EGFP; read-out: hTR-FRET IC50
[3] = tested on: BH4 production in human peripheral blood mononuclear cells (PBMCs); assay: hPBMC assay, inhibition of BH4 production by LC-MS (anti-CD3/anti-CD28 stimulated); type: cell-based; settings: PBMC, read-out: hPBMC IC50

Sequence of SNAP-hSPR (sepiapterin reductase, SPR) (P35270 whole entry): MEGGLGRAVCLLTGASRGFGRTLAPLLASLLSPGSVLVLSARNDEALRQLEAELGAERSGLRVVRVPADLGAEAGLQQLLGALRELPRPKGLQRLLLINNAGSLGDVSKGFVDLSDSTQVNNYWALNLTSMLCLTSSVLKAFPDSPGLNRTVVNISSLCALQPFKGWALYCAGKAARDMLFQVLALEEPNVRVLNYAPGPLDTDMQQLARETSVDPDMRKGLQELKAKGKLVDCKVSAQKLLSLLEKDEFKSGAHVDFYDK

SMILES | IC50 [1] | IC50 [2] | IC50 [3]
Cc1c(C(=O)N2CCC3(CC2)CC3C(=O)N2CCCC2)cnn1-c1nn2cccc2c(=O)[nH]1 (stereo not drawn) [Q-0911] | 400 nM | 2 nM | 110 nM
Cc1c(C(=O)N2CCC3(CC2)CC3(F)F)cnn1-c1nn2cccc2c(=O)[nH]1 [Q-0761] | 200 nM | 2 nM | 140 nM
Cc1c(C(=O)N2CC[C@@H](N(C)C(=O)OC(C)(C)C)C2)cnn1-c1nc2c(c(=O)[nH]1)CCC2 [Q-0571] | 73 nM | 3 nM | 67 nM
Cc1c(C(=O)N2CCC(C(F)F)CC2)cnn1-c1nc2c(c(=O)[nH]1)CCC2 [Q-1049] | 72 nM | 2 nM | 25 nM
Cc1c(C(=O)N2CCc3ccccc3C2)cnn1-c1nc2ccsc2c(=O)[nH]1 [Q-0354] | 100 nM | 2 nM | 380 nM
Cc1c(C(=O)N2CCC(n3cccc3)CC2)cnn1-c1nn2cccc2c(=O)[nH]1 [Q-0941] | 300 nM | 1 nM | 13 nM
Cc1c(C(=O)N2CCC(F)(C#N)C2)cnn1-c1nn2cccc2c(=O)[nH]1 (stereo not drawn) [Q-1059] | 1300 nM | 2 nM | 2100 nM
Cc1c(C(=O)N2CCN(C(C)C(F)(F)F)CC2)cnn1-c1nn2cccc2c(=O)[nH]1 (stereo not drawn) [Q-0956] | 86 nM | 1 nM | 14 nM
Cc1c(C(=O)N2CCN(C3CCC3)CC2)cnn1-c1nn2cccc2c(=O)[nH]1 [Q-0821] | 100 nM | 1 nM | 51 nM
Cc1c(C(=O)N2CC3C(C2)C3(C)C)cnn1-c1nc2c(c(=O)[nH]1)CCC2 (stereo not drawn) [Q-1048] | 200 nM | 1 nM | 50 nM
Cc1c(C(=O)N2CC=C(C3(C#N)CC3)CC2)cnn1-c1nn2cccc2c(=O)[nH]1 [Q-1034] | 200 nM | 2 nM | 160 nM
Cc1c(C(=O)N2CCC(c3noc(C4CC4)n3)CC2)cnn1-c1nn2cccc2c(=O)[nH]1 [Q-0953] | 58 nM | 1 nM | 21 nM
Cc1c(C(=O)N2CCC(C(F)(F)F)CC2)cnn1-c1nc2ccsc2c(=O)[nH]1 [Q-0379] | 84 nM | 2 nM | 280 nM
Cc1c(C(=O)N2CCC3(CC2)CC3C(=O)N2CCCCC2)cnn1-c1nc2c(c(=O)[nH]1)CCC2 (stereo not drawn) [Q-1058] | 93 nM | 2 nM | 150 nM
Cc1c(C(=O)N2CC3C(C2)C3(C)C)cnn1-c1nn2cccc2c(=O)[nH]1 (stereo not drawn) [Q-0927] | 200 nM | 1 nM | 81 nM
Cc1c(C(=O)N2CC(N(C)C(=O)OC(C)(C)C)C2)cnn1-c1nn2cccc2c(=O)[nH]1 [Q-0850] | 300 nM | 1 nM | 74 nM
Cc1c(C(=O)N2CCC(C3(C(F)(F)F)CC3)CC2)cnn1-c1nc2c(c(=O)[nH]1)CCC2 [Q-0943] | 18 nM | 2 nM | 38 nM
Cc1c(C(=O)N2CC3(CCN(CC(F)(F)F)CC3)C2)cnn1-c1nn2cccc2c(=O)[nH]1 [Q-0951] | 400 nM | 2 nM | 45 nM
O=C(c1cnn(-c2nn3cccc3c(=O)[nH]2)c1)N1CCC(C(F)(F)F)CC1 [Q-0467, 2-{4-[4-(trifluoromethyl)piperidine-1-carbonyl]-1H-pyrazol-1-yl}-3H,4H-pyrrolo[2,1f][1,2,4]triazin-4-one] | 82 nM | 2 nM | 100 nM
Cc1c(C(=O)N2CCCN(CC(F)(F)F)CC2)cnn1-c1nn2cccc2c(=O)[nH]1 [Q-0992] | 800 nM | 3 nM | 98 nM

SMILES | IC50 [1] | IC50 [2] | IC50 [3]
Cc1c(C(=O)N2CCC(S(=O)(=O)c3ccc(F)c(F)c3)CC2)cnn1-c1nn2cccc2c(=O)[nH]1 [Q-0591] | 100 nM | 3 nM | 45 nM
O=C(c1cnn(-c2nn3c(F)ccc3c(=O)[nH]2)c1)N1CCC(C(F)(F)F)CC1 [Q-0525, 7-fluoro-2-(4-(4-(trifluoromethyl)piperidine-1-carbonyl)-1H-pyrazol-1-yl)pyrrolo[1,2-f][1,2,4]triazin-4(3H)-one] | 19 nM | 1 nM | 24 nM
Cc1c(C(=O)N2CCN(CCC(F)(F)F)CC2)cnn1-c1nn2cccc2c(=O)[nH]1 [Q-1060] | 200 nM | 2 nM | 220 nM
Cc1c(C(=O)N2CCC(C(F)(F)F)CC2)cnn1-c1nc2c(c(=O)[nH]1)CCC2 [Q-0418] | 50 nM | 2 nM | 32 nM
C=CCC(C#N)C1CCN(C(=O)c2cnn(-c3nn4cccc4c(=O)[nH]3)c2C)CC1 (stereo not drawn) [Q-0978] | 81 nM | 1 nM | 59 nM
Cc1c(C(=O)N2CCC3(CC2)CC(F)C3)cnn1-c1nn2cccc2c(=O)[nH]1 [Q-0998] | 300 nM | 1 nM | 92 nM
Cc1c(C(=O)N2CCC3(CC2)CC3C(=O)N2CCCC2)cnn1-c1nc2c(c(=O)[nH]1)CCC2 (stereo not drawn) [Q-1061] | 400 nM | 3 nM | 210 nM
Cc1c(C(=O)N2CCC(OCC(F)(F)F)CC2)cnn1-c1nn2cccc2c(=O)[nH]1 [Q-0784] | 300 nM | 1 nM | 120 nM
Cc1c(C(=O)N2CC(N3CCC(F)(F)C3)C2)cnn1-c1nc2c(c(=O)[nH]1)CCC2 [Q-0937] | 800 nM | 4 nM | 130 nM
Cc1c(C(=O)N2CCC(O)(C3CC3)CC2)cnn1-c1nn2cccc2c(=O)[nH]1 [Q-0815] | 100 nM | 1 nM | 72 nM
Cc1c(C(=O)N2CCC3(CC2)CC3C(=O)N2CCCCC2)cnn1-c1nn2cccc2c(=O)[nH]1 (stereo not drawn) [Q-1057] | 100 nM | 1 nM | 67 nM
Cc1c(C(=O)N2CCC(C(F)(F)F)CC2)cnn1-c1nc2[nH]ccc2c(=O)[nH]1 [Q-0427] | 3100 nM | 9 nM | 1100 nM
Cc1c(C(=O)N2CCC3(CC3)C2)cnn1-c1nn2cccc2c(=O)[nH]1 [Q-0921] | 400 nM | 2 nM | 47 nM
Cc1cc(=O)[nH]c(-n2ncc(C(=O)N3CCc4ccccc4C3)c2C)n1 [Q-0279, 6-methyl-2-[5-methyl-4-(1,2,3,4-tetrahydroisoquinoline-2-carbonyl)-1H-pyrazol-1-yl]-3,4-dihydropyrimidin-4-one] | 1000 nM | 7 nM | 2200 nM
Cc1c(C(=O)N2CCN(CC3CCC3)[C@H](C)C2)cnn1-c1nn2cccc2c(=O)[nH]1 [Q-1020] | 300 nM | 2 nM | 200 nM
Cc1c(C(=O)N2CCC(S(=O)(=O)C(C)C)CC2)cnn1-c1nn2cccc2c(=O)[nH]1 [Q-0977] | 500 nM | 1 nM | 86 nM
Cc1c(C(=O)N2CCC(c3nccs3)CC2)cnn1-c1nn2cccc2c(=O)[nH]1 [Q-0969] | 200 nM | 1 nM | 160 nM
CCC1(C#N)CCN(C(=O)c2nnn(-c3nn4cccc4c(=O)[nH]3)c2C)CC1 [Q-0777] | 300 nM | 1 nM | 55 nM
Cc1c(C(=O)N2CCN(CC(F)(F)F)CC2)cnn1-c1nn2cccc2c(=O)[nH]1 [Q-0760] | 400 nM | 1 nM | 75 nM
Cc1c(C(=O)N2CCC(c3cccnc3F)CC2)cnn1-c1nn2cccc2c(=O)[nH]1 [Q-1003] | 100 nM | 1 nM | 51 nM
